Data set [1] deals with cervical carcinoma cell lines (HeLa). The data set is described as follows: Cytotoxicity assay (Alamar Blue), HeLa. The class given is cell-based, human. Conditions: HeLa cells, 72 h of treatment, in DMF. How it is done: (§1) All new platinum(II) complexes were screened for cytotoxic activity against following tumor cell lines: T-lymphoblastic leukemia (CEM), epithelial breast carcinoma (MCF7), and cervical carcinoma cell lines (HeLa) (Table 2). A control of cytotoxicity was done with normal human fibroblasts (BJ) and human umbilical vein endothelial cells (HUVEC). The cytotoxicity of all substances in BJ and HUVEC was very similar. […] Its sensitivity against HeLa cell line (7.0 µM) was better than that of cisplatin (11.4 µM). However, the toxicity of 23a against normal human cells (BJ and HUVEC) was similar to that of cisplatin. […] Taking into account lack of activity of cholic and hyodeoxycholic acids-based complexes at studied concentrations (against all tested cell lines IC50 > 50 µM) we can suppose that modifications of bile acids should be focused on the most lipophilic lithocholic acid derivatives. The results presented here provide an inspiration for further studies in this area.
(§2) Cisplatin derivatives were evaluated for their cytotoxic activities in vitro in following cell lines derived from various tumors: T-lymphoblastic leukemia (CEM), epithelial breast carcinoma (MCF7) and cervical carcinoma cell lines (HeLa) (all from ECACC, UK) and also in normal human fibroblasts (BJ; from ATCC, USA). Human umbilical vein endothelial cells (HUVEC) were a kind gift from Prof Jitka Ulrichová (Medical Faculty, Palacký University, Olomouc, Czech Republic). HUVEC were grown in ECPM medium (Provitro, Berlin, Germany). Six serial 3-fold dilutions in triplicate of each drug in DMF was administered in every cell line for 72 h. Alamar Blue dye was used for staining of living cells only. IC50 values (50% inhibitory concentrations) were calculated as the proportions of surviving cells. A detailed procedure for the cytotoxicity assay was described previously, except for using Alamar Blue dye instead of Calcein AM [37]. Briefly, the percentage of surviving cells in each well was calculated by dividing the intensity of the fluorescence signals from the exposed wells by the intensity of signals from control wells and multiplying by 100. These ratios were then used to construct dose–response curves, from which IC50 values, i.e., concentrations of the respective compounds that were lethal to 50% of the tumor cells, were calculated. The results obtained from cytotoxicity assays are shown in Table 2 (mean values ± SD obtained from three independent experiments performed in triplicate).

Data set [2] has as its system human umbilical vein endothelial cells (HUVEC). Nature of the data set: Cytotoxicity assay (Alamar Blue), HUVEC. It counts as cell-based. Conditions: 72 h of treatment, in DMF. How it is done:
as §1, §2
In general terms: Alamar Blue is a resazurin reagent that responds to reducing activity.

In data set [3] the test system is epithelial breast carcinoma (MCF7). Nature of the data set: Cytotoxicity assay (Alamar Blue), MCF7. The class given is cell-based, human. Conditions: MCF7 cells, 72 h of treatment, in DMF. The procedure:
as §1, §2

The test system of data set [4] is normal human fibroblasts (BJ). The data set is described as follows: Cytotoxicity assay (Alamar Blue), BJ. Particulars: BJ cells, 72 h of treatment, in DMF. The class given is cell-based. How it is done:
as §1, §2

Data set [5] has as its system T-lymphoblastic leukemia (CEM). Nature of the data set: Cytotoxicity assay (Alamar Blue), CEM. The class given is cell-based, human. Conditions: CEM cells, 72 h of treatment, in DMF. How it is done: as §1, §2
The mark [6] stands for this setting: test done at temperature 37 °C due to solubility problems.

Where only a bound is given, the exact number is not on record here.

In general, melting point refers to the temperature of the solid-liquid transition. For orientation: IC50 means the point on the concentration scale where inhibition reaches its midpoint.

Turning to `C[C@H](CCCNCCN)[C@H]1CC[C@H]2[C@@H]3CCC4C[C@H](O)CC[C@]4(C)[C@H]3CC[C@]12C` (stereo partly drawn), the melting point fell in the range of 107 to 110 °C.
Still for that read-out and setting: under `C[C@H](CCCNCCN)[C@H]1CC[C@H]2[C@@H]3CCC4C[C@H](O)CC[C@]4(C)[C@H]3C[C@H](O)[C@]12C` (stereo partly drawn) stands 70 to 72 °C; under `C[C@H](CCCNCCN)[C@H]1CC[C@H]2[C@@H]3C[C@H](O)C4C[C@H](O)CC[C@]4(C)[C@H]3CC[C@]12C` (stereo partly drawn), 72 to 74 °C.
In turn, `C[C@H](CCCNCCCN)[C@H]1CC[C@H]2[C@@H]3CCC4C[C@H](O)CC[C@]4(C)[C@H]3CC[C@]12C` (stereo partly drawn) showed a melting point of 92 to 94 °C.
`C[C@H](CCCNCCCN)[C@H]1CC[C@H]2[C@@H]3CCC4C[C@H](O)CC[C@]4(C)[C@H]3C[C@H](O)[C@]12C` (stereo partly drawn): the melting point is 64 to 66 °C.
As to `N.N.[Cl][Pt][Cl]` [cisplatin], the IC50 in data set [1] (mean ± S.D.) was 11.4 ± 3.8 µM; in data set [2] (mean ± S.D.) it was 5.5 ± 1.1 µM; in data set [3] (mean ± S.D.) it was 7.7 ± 1.7 µM; in data set [4] (mean ± S.D.), 6.9 ± 0.9 µM; in data set [5] (mean ± S.D.), 0.8 ± 0.1 µM.
In the case of “cis-Dichloro-24-[(N-2′-aminoeth-1′-yl-κN)aminocholan-3α-ol-κN]platinum(II) [22a]”, the concentration for half-maximal inhibition (IC50) in data set [1] (setting [6]) was greater than 50 µM; in data set [2] (setting [6]) it was greater than 50 µM; in data set [3] (setting [6]), greater than 50 µM; in data set [4] (setting [6]) it was greater than 50 µM; in data set [5] (setting [6]), 40.2 ± 2.6 µM.
As for “cis-Dichloro-24-[(N-2′-aminoeth-1′-yl-κN)aminocholane-3α,12α-diol-κN]platinum(II) [22b]”, the 50% inhibitory concentration (IC50) is 35.5 ± 5.3 µM in data set [1] (mean ± S.D.); 38.2 ± 0.6 µM in data set [2] (mean ± S.D.); 20.5 ± 3.1 µM in data set [3] (mean ± S.D.); 36.6 ± 5.1 µM in data set [4] (mean ± S.D.); 37.1 ± 6.8 µM in data set [5] (mean ± S.D.).
For “cis-Dichloro-24-[(N-3′-aminoprop-1′-yl-κN)aminocholan-3α-ol-κN]platinum(II) [23a]”, in that order: 7 ± 0.2 µM, 6.9 ± 0.6 µM, 7 ± 0.5 µM, 6.3 ± 0.8 µM and 3.6 ± 0.1 µM.
For “cis-Dichloro-24-[(N-3′-aminoprop-1′-yl-κN)aminocholane-3α,12α-diol-κN]platinum(II) [23b]”, in that order: 36.2 ± 4.3 µM, 34.4 ± 5.6 µM, 23.3 ± 4.7 µM, 42.5 ± 3.2 µM and 31.6 ± 3.5 µM.
